Source: patent US5011828A, “Immunostimulating guanine derivatives, compositions and methods” (priority 1988, dated 1991)
In brackets after ≈: the same amount, converted by molar mass. Several values for one entry are separate records, joined by “and”; a condition that tells them apart may be missing. Equal values may be shown once.

Columns and labels:
lymphocytes = details: cited from earlier work
[1] = tested on: murine lymphocytes (sheep red blood cells as antigen); experiment: Antigen-specific adjuvanticity: direct anti-SRBC plaque forming cells, murine system; assay type: cell-based, mouse; details: for Peak Direct anti-SRBC PFC/Culture: murine system, at peak concentration; for Average 1 Log Plaque Values: Table 9, murine, * = single study
From the text: ^1 Adjuvanticities against sheep red blood cells [SRBC] measured in
direct plaqueforming cells per culture of lymphocytes from the mouse
strains shown. Details of the procedure are provided in the Materials and
Methods Section. Standard errors from the enumerated mean values are show
A large number of comparisons of adjuvanticity using human and murine lymphocytes as the source of leukocytes have been carried out using compounds of the present invention, as well as with new compounds excluded from the present invention. […] Interstudy comparisons are however useful for showing trends and large differences. Tables 5, 6 and 7, hereinafter, provide exemplary data from such studies in which only the activity at the peak concentration is shown for each compound and the results for the controls are omitted.
Lymphocyte cultures. The serum-containing culture medium water prepared to contain the following per 100 milliliters: 91.9 milliliters RPMI 1640 (Flow Laboratories, Inc., Rockville, Md.), 0.1 milliliters of 100×glutamine, 1.0 milliliter of 100×sodium pyruvate, 1 0 milliliter of 50×nonessential amino acids, 1.0 milliliter of water containing 10^4 units of penicillin G and 10^4 micrograms of streptomycin, and 5.0 milliliters of a supportive lot of fetal calf serum (FCS). These ingredients were admixed to apparent homogeneity. Spleen cell suspensions and populations enriched for splenic B cells were prepared as described in Goodman et al., J. Immunol., 121:1905 (1978).
For evaluation of the primary humoral immune response to sheep erythrocytes (SRBC), 5×10^6 to 10^7 murine spleen cells were cultured in 1.0 milliliter of 5% FCS-containing medium for 4 or 5 days in the presence and absence of immunogen. Cells were incubated in culture trays (Costar, Cambridge, Mass.) at 37° C. in a humidified atmosphere of 10% CO2 in air using tissue culture boxes (CBS Scientific, Del Mar, Calif.) that were rocked at a frequency of 7 cycles per minute. Pooled SRBC are available from the Colorado Serum Co., Denver Colo.
(§1) Assay of plaque forming cells (PFC). PFC secreting antibodies against SRBC were evaluated after 4 or 5 days of culture using a modification of the hemolytic plaque assay of Jerne and Nordin, Science, 140:405 (1963). The cells were brought up in complete medium before plaquing; they were plaqued in standard low Mr agarose (Bio-Rad Laboratories, Richmond Calif.), and were incubated in SRBC-absorbed guinea pig complement for one hour after a 1.5 hour incubation without complement.

murine spleen cells = experiment: Mitogenicity: [3H]TdR uptake, murine system; assay type: cell-based, mouse
[2] = tested on: human peripheral blood lymphocytes (sheep red blood cells as antigen); experiment: Antigen-specific adjuvanticity: direct anti-SRBC plaque forming cells, human system; assay type: cell-based; details: for Average 1 Log Plaque Values: Table 9, human, * = single study
Protocol: ^1 Studies were carried in a manner similar to those of Table 1,
except that a human lymphocyte preparation was used.
The results shown in Table 7, below, were obtained similarly to those discussed above, but using human lymphocytes. Some of those studies utilized lymphocytes from more than one individual, and are therefore reported with multiple entries.
Human peripheral blood lymphocytes (PBL) were prepared from normal heparinized venous blood by Ficoll-diatrizoate density gradient centrifugation. PBL were depleted of suppressor T cells bearing the histamine type 2 receptor by adhering them to the surfaces of histamine-rabbit serum albumin-coated plastic petri dishes (Cell-ect No. 2 kit; Seragen, Boston, Mass.) and by recovering the nonadherent cells by panning as described by Wysocki and Sato, Proc. Natl. Acad. Sci. USA, 75:2844 (1978) and modified by Cavagnaro and Osband, Biotechniques, January/February:30 (1983).
The tissue culture medium employed in these studies for human lymphocytes was prepared as follows: One hundred milliliters (ml) contained 87.9 ml RPMI 1640 (Flow Laboratories, Rockville, Md.), 0.1 ml 100×glutamine,1.0 ml of 1.0 M HEPES buffer (Microbilogical Associates, Betheseda, Md.), 1.0 ml of water containing 10^4 U of penicillin G and 10^4 micrograms of streptomycin, and 10 ml of fresh autologous heat-inactivatedplasma. For evaluation of the primary humoral immune response to SRBC, lymphoid cells prepared as above were cultured at a density of 2×10^6 /ml in a volume of 1.0 ml containing 5×10^6 SRBC as antigen (Colorado Serum Co., Denver, Colo.) together with IL-2 (a partially purified preparation of human IL-2 that was free of interferon-gamma activity was obtained from Electro-Nucleonics, Inc., Silver Spring, Md.) and the guanine nucleoside derivative.
as §1

physchem = assay type: physicochemical, human; details: human, urine
From the text: Solubilities in urine could be expected to be lower than those for water due to the relatively higher salt content in urine than is found in water.
Each sample was filtered through a 5 micron pore-sized filter, diluted as necessary with the HPLC mobile phase, and then quantified by HPLC.

[3] = tested on: CBA/CaJ thymocytes (irradiated BDF1 splenocyte stimulators); experiment: T cell proliferation in mixed leukocyte cultures, CBA/CaJ thymocytes; assay type: cell-based, mouse; details: Study 3, responder +, stimulator +
From the text: A third and fourth study utilized thymocytes from CBA/CaJ mice as the stimulated (responder) cells, and irradiated BDFl mouse spleen cells as the stimulator cells. Two guanosine derivatives of the present invention, 7a8MGuo and 7a8oGuo, were used for these studies, with 8MGuo serving as positive control for one of the studies.
However, in the presence of interleukin-2 (IL-2), those cells develop responsiveness to allogeneic stimulation. The present studies utilizing thymocytes were therefore carried out in the presence of a co-stimulating amount of IL-2.
(§2) ^1 Plus signs (+) are utilized to indicate the presence of the
(§3) ^3 Allogeneic cells used to costimulate proliferation, after exposure
(§4) T Helper Cell Activation. 1.5×10^5 viable spleen cells from SJL mice or CBA/CaJ mouse thymocytes were cultured with or without an equal number of irradiated (2500 rads) spleen cells from CBA/CaJ or BDFl mice respectively, in 0.2 ml of culture medium in the presence of incremental concentrations of the exemplary 7,8-disubstituted guanine derivatives. The lymphocyte culture medium utilized was that described before, and was further supplemented with 2-mercaptoethanol to a final concentration of 50 uM. Thymocyte cultures also contained 10 percent (v/v) of a concanavalin A-conditioned rat spleen cell medium sold under the name Rat T Cell Monoclone by Collaborative Research. Following 90 hours of culture, one microCurie [^3 H]TdR per culture was admixed, and the resulting culture was maintained for a further six hour time period.
(§5) The cultures were harvested with a Brandel cell harvester (M24V, Biological Research and Development Laboratories, Rockville, Md.) onto glass fiber filter disks. Filter disks were transferred to plastic scintillation vials, covered with liquid scintillation cocktail, and counted in a Beckman LS5700 liquid scintillation counter.

[4] = tested on: SJL splenocytes (irradiated CBA/CaJ splenocyte stimulators); experiment: T cell proliferation in mixed leukocyte cultures, SJL splenocytes; assay type: cell-based, mouse; details: responder +, stimulator +, 10^-3 M
From the text: In evaluating the effect of a guanosine derivative on alloantigen-induced proliferation, it is imperative to minimize the simultaneous mitogenic response of B cells to contact with a guanosine derivative. Spleen cells from SJL mice (whose B cells are hyporesponsive to the mitogenic effect of a guanosine derivative, but not to its adjuvant activity) were used as responder cells in two studies. Those responder cells were stimulated with irradiated allogenic cells (from CBA/CaJ mice) in the presence of no added nucleoside, incremental amounts of a guanosine derivative of the invention, 7M8oGuo, or with another guanosine derivative, 8MGuo, used as a positive control.
as §2
material of the column heading in the culture medium, whereas minus signs
(-) are utilized to show absence of such a material from the culture
as §3, §4, §5

Structure (SMILES)	Peak Direct anti-SRBC PFC/Culture ([1]; Table 5) [PFC/Culture]	Direct Anti-SRBC PFC/Culture ([1]; Table 8, 1 × 10^-5 M) [PFC/Culture]	Average 1 Log Plaque Values [1]	[3H] TdR Uptake (murine spleen cells; Table 4, 3 × 10^-4 M)	[3H] TdR Uptake (murine spleen cells; Table 4, 10^-3 M)	[3H] TdR Uptake (murine spleen cells; Table 4, 10^-4 M)	Average 1 Log Plaque Values [2]	Direct Anti-SRBC PFC/Culture ([1]; Table 1, C57BL/6J, 3 × 10^-4 M)	Direct Anti-SRBC PFC/Culture ([1]; Table 1, CBA/CaJ, 3 × 10^-4 M)	Direct Anti-SRBC PFC/Culture ([1]; Table 1, CBA/CaJ, 10^-4 M) [PFC/Culture]	further results
Nc1nc2c(nc(Br)n2[C@@H]2O[C@@H]3COP(=O)(O)O[C@H]3[C@H]2O)c(=O)[nH]1 [8-BrcGMP, 8-Bromoguanosine-3',5'-cyclic monophosphate]	–	–	–	–	–	–	–	–	–	–	lymphocyte mitogenicity, in words (lymphocytes): weak synthetic intracellular lymphocyte mitogen
CCCCn1c(=O)n([C@@H]2O[C@H](CO)[C@@H](O)[C@H]2O)c2nc(N)[nH]c(=O)c21 [compound 23644, 7-Butyl-8-oxoguanosine]	1058 ± 154	900	118,886 ± 80,092 per micromole	41,180 ± 410 cpm/culture	33,220 ± 1330 cpm/culture	30,720 ± 1030 cpm/culture	52,397 per micromole	–	–	–	peak adjuvanticity values greater as compared to 7m8oGuo ([2]; human system (Table 3)): about 100%
Cn1c(=O)n([C@@H]2O[C@H](CO)[C@@H](O)[C@H]2O)c2nc(N)[nH]c(=O)c21 [7m8oGuo, 7-methyl-8-oxoguanosine, reference compound]	723 ± 143	145	22,359 ± 5154 per micromole	39,620 ± 1160 cpm/culture	35,070 ± 1830 cpm/culture	23,640 ± 770 cpm/culture	867 ± 217 per micromole	–	–	–	Peak Direct anti-SRBC PFC/Culture ([2]; Table 7, first group, person a): 1250 ± 125 PFC/Culture; Peak Direct anti-SRBC PFC/Culture ([2]; Table 7, first group, person b): 830 ± 67 PFC/Culture; Peak Direct anti-SRBC PFC/Culture ([2]; Table 7, first group, person c): 1225 ± 175 PFC/Culture; Peak Direct anti-SRBC PFC/Culture ([2]; Table 7, second group, person a): 528 PFC/Culture; Peak Direct anti-SRBC PFC/Culture ([2]; Table 7, second group, person b): 297 PFC/Culture; Peak Direct anti-SRBC PFC/Culture ([2]; Table 7, second group, person c): 263 PFC/Culture; solubility at 18 h (physchem): 4880 µg/mL (≈ 15.6 mM)
CCn1c(=O)n([C@@H]2O[C@H](CO)[C@@H](O)[C@H]2O)c2nc(N)[nH]c(=O)c21 [compound 23643, 7-Ethyl-8-oxoguanosine]	–	270	–	48,690 ± 1120 cpm/culture	34,160 ± 780 cpm/culture	37,490 ± 540 cpm/culture	–	–	–	–	peak concentration lower than comparison compound ([1]; murine system (Table 5), vs 8-BrGuo): 1.5 log units; Peak Direct anti-SRBC PFC/Culture ([2]; Table 7, later studies, single preparation): 9045 ± 310 PFC/Culture
Nc1nc2c(nc(S)n2[C@@H]2O[C@H](CO)[C@@H](O)[C@H]2O)c(=O)[nH]1 [8MGuo, 8-mercaptoguanosine, reference compound]	–	–	–	–	–	–	–	11,000 ± 140 PFC/Culture	527 ± 25 PFC/Culture and 782 ± 123 PFC/Culture	813 ± 129	Peak Direct anti-SRBC PFC/Culture ([1]; Table 6): 527 ± 25 PFC/Culture; [3H] TdR Uptake ([3]; 10^-4 M): 13,800 ± 1000 counts per minute; [3H] TdR Uptake ([3]; 10^-5 M): 15,600 ± 1000 counts per minute; [3H] TdR Uptake ([4]; Study 1): 28,100 ± 2700 counts per minute; [3H] TdR Uptake ([4]; Study 2): 30,800 ± 1300 counts per minute
Nc1nc2c(nc(SCC=Cc3ccccc3)n2[C@@H]2O[C@H](CO)[C@@H](O)[C@H]2O)c(=O)[nH]1 [compound 22359, 8-(Cinnamylmercapto)guanosine]	–	–	–	–	–	–	–	2620 ± 100 PFC/Culture	157 ± 7 PFC/Culture	123 ± 21	Direct Anti-SRBC PFC/Culture ([1]; Table 1, C57BL/6J, 10^-3 M): 3110 ± 350 PFC/Culture; Direct Anti-SRBC PFC/Culture ([1]; Table 1, CBA/CaJ, 10^-3 M): 653 ± 52 PFC/Culture; [3H] TdR Uptake (murine spleen cells; Table 2, 3 × 10^-4 M): 1300 ± 80 cpm/culture; [3H] TdR Uptake (murine spleen cells; Table 2, 10^-3 M): 1700 ± 280 cpm/culture; [3H] TdR Uptake (murine spleen cells; Table 2, 10^-4 M): 1600 ± 90 cpm/culture
